This passage reports pest or weed control and melting point results from US12077503B2, “Substituted cyclic amides and their use as herbicides” (FMC CORPORATION, priority 2015, dated 2024).

Read-outs that look alike come from different tables or passages of the source.

Series [1] concerns barnyardgrass (Echinochloa crus-galli). Briefly: Test B flooded paddy test. Type of series: in vivo. To be noted: Echinochloa crus-galli, Flood, 250 g ai/ha, read-out: Barnyardgrass plant response rating. A digest of the protocol:
(§1)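 Response scored visually against untreated controls, 0 = no effect and 100 = complete control, 13–15 d after treatment in the greenhouse. Compounds added to paddy water held 3 cm above soil surface. Treatment given at 2-leaf stage.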

Series [2] has as its system ducksalad (Heteranthera limosa). Briefly: Test B flooded paddy test. Type of series: in vivo. The settings on record: Heteranthera limosa, Flood, 250 g ai/ha, read-out: Ducksalad plant response rating. A digest of the protocol: as §1
Another series concerns rice (Oryra sativa). Nature of the series: Test B flooded paddy test. The series is classed as in vivo. To be noted: Oryza sativa, Flood, 250 g ai/ha, read-out: Rice plant response rating. A digest of the protocol:
as §1

Series [3] deals with sedge, umbrella (small-flower umbrella sedge, Cyperus difformis). Briefly: Test B flooded paddy test. To be noted: Cyperus difformis, Flood, 250 g ai/ha, read-out: Sedge, Umbrella plant response rating. Type of series: in vivo. Summed up: as §1
[4] abbreviates: scale of 0 to 100 where 0 is no effect and 100 is complete control.
[5] abbreviates: 0 to 100 scale where 0 is no effect and 100 is complete control.

A word on the melting point: it is the temperature of the solid-liquid transition. `CN1CC(c2cccc(C=O)c2)C(C(=O)Nc2ccccc2F)C1=O` (stereo not shown) [Compound 844] showed a melting point of 133 to 136 °C. Further, the pest or weed control at 250 g/ha in series [1] (setting [4]) was found to be 0%. Also, in series [2] (setting [4]), the pest or weed control at 250 g/ha came out at 0%. Further, the pest or weed control at 250 g/ha with rice (Oryra sativa) (setting [4]) turned out to be 0%. For the same molecule, the pest or weed control at 250 g/ha in series [3] (setting [4]) came out at 0%.
`O=C1NCC(c2cccc(I)c2)C1C(=O)Nc1ccccc1F` (stereo not shown) [Compound 845] came in with a melting point of 150 to 153 °C. Also, the pest or weed control at 250 g/ha in series [1] (setting [4]) was 30%. Besides, in series [2] (setting [4]), the pest or weed control at 250 g/ha was determined as 0%. Also, in the series with rice (Oryra sativa) (setting [4]), the pest or weed control at 250 g/ha was 20%. For the same molecule, the pest or weed control at 250 g/ha in series [3] (setting [4]) was found to be 0%.
For the molecule `O=C1NC[C@H](c2cncc(C(F)(F)F)c2)[C@H]1C(=O)Nc1ccccc1F` [Compound 887], the melting point lay in the range of 192 to 195 °C. In addition, in series [1] (setting [4]), the pest or weed control at 250 g/ha was 50%. Also, the pest or weed control at 250 g/ha in series [2] (setting [4]) is 65%. Moreover, the pest or weed control at 250 g/ha with rice (Oryra sativa) (setting [4]) is 0%. For the same molecule, in series [3] (setting [4]), the pest or weed control at 250 g/ha turned out to be 0%.
`C=CCOc1cccc(C2CN(C)C(=O)C2C(=O)Nc2cccc(F)c2F)c1` (stereo not shown) [Compound 933] returned a melting point of 94 to 97 °C. Besides, in series [1] (setting [4]), the pest or weed control at 250 g/ha was found to be 60%. Further, the pest or weed control at 250 g/ha in series [2] (setting [4]) came to 60%. The pest or weed control at 250 g/ha in the series on rice (Oryra sativa) (setting [4]) was 0%. In addition, in series [3] (setting [4]), the pest or weed control at 250 g/ha amounted to 0%.
For the molecule `Cc1c(F)cccc1NC(=O)[C@H]1C(=O)N(C)C[C@@H]1c1ccc(C(F)(F)F)nc1` [Compound 1197], the pest or weed control at 250 g/ha worked out at 70% in series [1] (setting [5]), 100% in series [2] (setting [5]), 0% in the series on rice (Oryra sativa) (setting [5]) and 0% in series [3] (setting [5]).
Take `COc1cc(C(F)(F)F)ccc1[C@H]1CNC(=O)[C@@H]1C(=O)Nc1ccccc1F` [Compound 1202]: the pest or weed control at 250 g/ha was determined as 0% in series [1] (setting [5]), 100% in series [2] (setting [5]), 0% in the series on rice (Oryra sativa) (setting [5]) and 0% in series [3] (setting [5]).
Turning to `COc1ccc([C@H]2CN(C)C(=O)[C@@H]2C(=O)Nc2cccc(F)c2F)c(OC)c1` [Compound 1209], the pest or weed control at 250 g/ha was determined as 0% in series [1] (setting [5]), 50% in series [2] (setting [5]), 0% with rice (Oryra sativa) (setting [5]) and 0% in series [3] (setting [5]).
On to `COc1cc([C@H]2CN(C)C(=O)[C@@H]2C(=O)Nc2cccc(F)c2F)cc(OC)c1OC` [Compound 1210], for which the pest or weed control at 250 g/ha in series [1] (setting [5]) was 50%; in series [2] (setting [5]), 30%; in the series with rice (Oryra sativa) (setting [5]) it was 20%; in series [3] (setting [5]), 0%.
The corresponding values for `CSc1ccccc1NC(=O)[C@H]1C(=O)N(C)C[C@@H]1c1ccc(OC(F)F)cc1` [Compound 1212] are 0%, 95%, 0% and 0%.
In the case of `Cc1ccc([C@H]2CCN(C)C(=O)[C@@H]2C(=O)Nc2ccc(F)c(F)c2F)cc1` [Compound 1221], the pest or weed control at 250 g/ha in series [1] (setting [5]) is 85%; in series [2] (setting [5]) it was 100%; in the series with rice (Oryra sativa) (setting [5]), 0%; in series [3] (setting [5]) it was 0%.
`CSc1ccccc1NC(=O)[C@H]1C(=O)N(C)CC[C@@H]1c1ccc(C)cc1` [Compound 1222]: the pest or weed control at 250 g/ha in series [1] (setting [5]) is 0%; in series [2] (setting [5]), 65%; in the series with rice (Oryra sativa) (setting [5]) it was 15%; in series [3] (setting [5]), 70%.
For the molecule `Cc1c(F)cccc1NC(=O)[C@H]1C(=O)N(C)C[C@@H]1c1ccc(F)cc1` [Compound 1235], the pest or weed control at 250 g/ha in series [1] (setting [5]) was determined as 100%; in series [2] (setting [5]) it was 90%; in the series on rice (Oryra sativa) (setting [5]) it was 80%; in series [3] (setting [5]), 75%.
